Experimental data from patent US5510340A, “Antihypercholesterolemic compounds and related pharmaceutical compositions and methods of use” (SRI International, priority 1992, dated 1996).

Tests used:
[1] = tested on: Cholesterol Biosynthesis in CHO Cells; test: In Vitro Assay for Inhibition of Cholesterol Biosynthesis in CHO Cells; type: cell-based, Chinese Hamster; conditions: Cricetulus griseus, 14C-acetate incorporation into cholesterol, 16-18 h incubation with compound
Procedure: Chinese Hamster ovary (CHO) cells were seeded at 1×10^5 cells per 60-mm Petri dish and incubated at 37° C. in F-12 medium supplemented with fetal calf serum (5%). After 24 h, the medium was aspirated and replaced with delipidated calf serum in F-12 medium containing the test compounds. At various concentrations, either ethanol or dimethyl sulfoxide was used to dissolve the test compounds to a final concentration of 0.1% in the cell medium. Controls contained the vehicle alone. After incubation for 16-18 h, ^14 C-acetate (20 μM final concentration) was added and incubation continued for 5.5 h. […] The cells were then scraped off the plates with a rubber policeman into saline (2 mL). An aliquot for protein was taken, and the remainder of the cell suspension was centrifuged at 800×g for 10 min. The supernatant was discarded and the pellet extracted by vortexing 15 s in chloroform:methanol (2 mL of 2:1). […] NaCl (0.4 mL) was added, vortexed, and centrifuged, and the top layer was discarded. A portion of the upper phase mixture of chloroform:methanol:water (0.4 mL of 3:48:47) was added and gently swirled to avoid mixing with the bottom layer. The resultant samples were centrifuged, and the top layer was discarded. The procedure was repeated before methanol was finally added to combine the two layers and the solvent was evaporated. Chloroform (200 μL) was added to the residue and an aliquot (150 μL) taken. To the aliquot was added cholesterol (40 μg in 20 μL), and the samples were concentrated. The lipids were dissolved in chloroform (50 μL) and spotted on silica gel G thin-layer chromatography plates. After development in hexane:ether:acetic acid (80:20:1), the ^14 C-cholesterol spot was located with iodine vapor and scraped into a scintillation vial, and the radioactivity was counted with a scintillation counter.

[2] = tested on: Cholesterol Levels in Plasma of Rats; test: Assay for Lowering Cholesterol Levels in Rats with Oral Administration of Test Compound 15; type: in vivo, Male Sprague-Dawley rats; conditions: rat plasma, gavage, mean ± S.E.
Procedure: Male Sprague-Dawley rats weighing 120 to 150 g were used. The animals were placed on a cholesterol-free diet immediately upon arrival and housed in a room with a reverse light cycle. One week after they had adapted to the light cycle, the experiment was begun by gavaging the animals three times daily with various amounts of test compound 13 suspended in 1.0 mL of saline. The control group received 1.0 mL of saline alone. On the seventh day of the experiment, sodium 1-^14 C! acetate (20 μCi/rat) was injected intraperitoneally 30 min after the oral administration (gavage) of test compounds and 2 h before the mid-dark point in the diurnal cycle; 4 h after the ^14 C-acetate injection, the animals were killed and blood samples were collected after decapitation. Plasma was obtained by centrifuging blood in an EDTA-treated centrifuge tube at 3000 rpm for 10 min. Cholesterol synthesis was measured by determining the level of ^14 C-labeled nonsaponifiable lipid present in 1.0 mL of plasma; 1.0 mL of plasma was first mixed with 1.0 mL of saline, followed by 5.0 mL of 10% KOH in absolute ethanol. Samples were saponified at 75° C. for 1 h. After cooling, 44,000 dpm, 0.5 nmol of 1,2-^3 H! cholesterol was added to each sample as an internal standard for calculating recovery through the extraction procedure. Samples were extracted once with 5 mL of petroleum ether, and the organic phase was backwashed with 5 mL of saline. The extracts were dried on a nitrogen evaporator, and the residue was reconstituted into 0.5 mL of CHCl3 -MeOH (2:1). The 0.5-mL reconstituted samples were transferred into counting vials containing 2 mL of ethanol, and both ^3 H and ^14 C were counted in 10 mL of scintillation fluid. The ^3 H-cholesterol internal standard recovery value from each sample was used to correct each sample to 100% recovery of ^14 C-cholesterol. The total cholesterol level and HDL in each plasma sample was also measured. The comparison between test groups and the control group was evaluated for both cholesterol levels and ^14 C-acetate incorporation.
(c.) Assay for Lowering Cholesterol Levels in Rats with Oral Administration of Test Compound 15:
The experiment was carried out as described in (b.). However, in this experiment, blood was drawn on days 0, 3 and 7. Total cholesterol levels and HDL were measured on these blood samples.

`C[C@H](CCCC(C)(C)O)[C@H]1CC[C@H]2[C@@H]3CC=C4C[C@@H](O)CC[C@]4(C)[C@H]3CC[C@]12C` gave an IC50 [1] of 0.35 µM.
`CC(C)CCC[C@@H](C)[C@H]1CC(=O)C2=C3[C@H](O)C[C@H]4C[C@@H](O)CC[C@]4(C)[C@H]3CC[C@@]21C` was tested, and the IC50 [1] was 1.6 µM.
`CC(C)CCC[C@@H](C)[C@H]1C[C@H]2C3=C4[C@@H](C[C@H]5C[C@@H](O)CC[C@]5(C)[C@H]4CC[C@@]31C)n1c(=O)c3ccccc3c(=O)n12` gave an IC50 [1] of 2.1 µM.
Work on `CCOC(=O)N1[C@@H]2C[C@H]3C[C@@H](O)CC[C@]3(C)[C@H]3CC[C@@]4(C)C(=C23)[C@H](C[C@@H]4[C@H](C)CCCC(C)C)N1C(=O)OCC` yielded an IC50 [1] of 0.8 µM.
For `CCOC(=O)N1[C@@H]2C[C@H]3C[C@@H](OC(=O)c4ccccc4)CC[C@]3(C)[C@H]3CC[C@@]4(C)C(=C23)[C@H](C[C@@H]4[C@H](C)CCCC(C)C)N1C(=O)OCC`, the IC50 [1] was 1.3 µM.
`CC(C)CCC[C@@H](C)[C@H]1C[C@H]2C3=C4[C@@H](C[C@H]5C[C@@H](O)CC[C@]5(C)[C@H]4CC[C@@]31C)N(C)N2C` gave an IC50 [1] of 1.6 µM.
For `C[C@H](CCCC(C)(C)O)[C@H]1Cc2nnc3c4c2[C@]1(C)CC[C@@H]4[C@@]1(C)CC[C@H](O)C[C@@H]1C3`, the IC50 [1] was 3.4 µM.
`C[C@H](CCCC(C)(C)F)[C@H]1Cc2nnc3c4c2[C@]1(C)CC[C@@H]4[C@@]1(C)CC[C@H](O)C[C@@H]1C3` gave an IC50 [1] of 0.16 µM.
For `CC(C)[C@@H](C)/C=C/[C@@H](C)[C@H]1Cc2nnc3c4c2[C@]1(C)CC[C@@H]4[C@@]1(C)CC[C@H](O)C[C@@H]1C3`, the IC50 [1] was 0.11 µM.
Work on `CC(C)CCC[C@@H](C)[C@H]1C[C@H](O)C2=C3C(=O)C[C@H]4C[C@@H](O)CC[C@]4(C)[C@H]3CC[C@@]21C` yielded an IC50 [1] of 1.1 µM.
`CC(C)CCC[C@@H](C)[C@H]1C[C@H](O)C2=C3C(=O)C[C@H]4C[C@@H](OC(=O)c5ccccc5)CC[C@]4(C)[C@H]3CC[C@@]21C` showed an IC50 [1] of 3.5 µM.
In the case of `CO[C@@H]1C[C@H]([C@H](C)CCCC(C)C)[C@@]2(C)CC[C@H]3C(=C12)CC[C@H]1C[C@@H](O)CC[C@@]13C`, the IC50 [1] is reported as 0.9 µM.
Work on `CC(C)CCC[C@@H](C)[C@H]1CC(=O)C2=C3[C@H](F)C[C@H]4C[C@@H](OC(=O)c5ccccc5)CC[C@]4(C)[C@H]3CC[C@@]21C` yielded an IC50 [1] of 0.2 µM.
`CC(C)CCC[C@@H](C)[C@H]1Cc2cnc3c4c2[C@]1(C)CC[C@@H]4[C@@]1(C)CC[C@H](O)C[C@@H]1C3` [Compound 15, pyridino 2',3',4',5':7,8,14,15!cholestan-3β-ol] was tested, and the “Cholesterol Levels, HDL” value ([2]; Day 0, 0.16 mg/rat/day, control 42.2 ± 4.40) was 39.6 ± 2.06 Mg/100 mL, the “Cholesterol Levels, Total” value ([2]; Day 0, 0.16 mg/rat/day, control 95.8 ± 9.79) was 94.8 ± 5.5 Mg/100 mL and the “Cholesterol Levels, HDL” value ([2]; Day 0, 0.33 mg/rat/day, control 42.2 ± 4.40) was 35.8 ± 1.91 Mg/100 mL. The “Cholesterol Levels, Total” value ([2]; Day 0, 0.33 mg/rat/day, control 95.8 ± 9.79) was 99.0 ± 3.7 Mg/100 mL, the “Cholesterol Levels, HDL” value ([2]; Day 0, 1.0 mg/rat/day, control 42.2 ± 4.40) was 37.8 ± 3.01 Mg/100 mL and the “Cholesterol Levels, Total” value ([2]; Day 0, 1.0 mg/rat/day, control 95.8 ± 9.79) was 88.8 ± 7.78 Mg/100 mL. For the same molecule, the “Cholesterol Levels, HDL” value ([2]; Day 0, 3.0 mg/rat/day, control 42.2 ± 4.40) was 35.2 ± 3.14 Mg/100 mL, the “Cholesterol Levels, Total” value ([2]; Day 0, 3.0 mg/rat/day, control 95.8 ± 9.79) was 85.6 ± 6.57 Mg/100 mL and the “Cholesterol Levels, HDL” value ([2]; Day 3, 0.16 mg/rat/day, control 41.6 ± 2.62) was 36.4 ± 1.36 Mg/100 mL. The “Cholesterol Levels, Total” value ([2]; Day 3, 0.16 mg/rat/day, control 85.2 ± 2.95) was 83.6 ± 3.56 Mg/100 mL, the “Cholesterol Levels, HDL” value ([2]; Day 3, 0.33 mg/rat/day, control 41.6 ± 2.62) was 35.8 ± 2.40 Mg/100 mL and the “Cholesterol Levels, Total” value ([2]; Day 3, 0.33 mg/rat/day, control 85.2 ± 2.95) was 75.6 ± 1.94 Mg/100 mL. For the same molecule, the “Cholesterol Levels, HDL” value ([2]; Day 3, 1.0 mg/rat/day, control 41.6 ± 2.62) was 34.4 ± 1.69 Mg/100 mL, the “Cholesterol Levels, Total” value ([2]; Day 3, 1.0 mg/rat/day, control 85.2 ± 2.95) was 78.8 ± 2.86 Mg/100 mL and the “Cholesterol Levels, HDL” value ([2]; Day 3, 3.0 mg/rat/day, control 41.6 ± 2.62) was 29.6 ± 0.98 Mg/100 mL. For the same molecule, the “Cholesterol Levels, Total” value ([2]; Day 3, 3.0 mg/rat/day, control 85.2 ± 2.95) was 72.2 ± 2.95 Mg/100 mL, the “Cholesterol Levels, HDL” value ([2]; Day 7, 0.16 mg/rat/day, control 49.6 ± 4.01) was 39.8 ± 1.02 Mg/100 mL and the “Cholesterol Levels, Total” value ([2]; Day 7, 0.16 mg/rat/day, control 84.8 ± 4.40) was 69.4 ± 3.66 Mg/100 mL. The “Cholesterol Levels, HDL” value ([2]; Day 7, 0.33 mg/rat/day, control 49.6 ± 4.01) was 36.0 ± 2.55 Mg/100 mL, the “Cholesterol Levels, Total” value ([2]; Day 7, 0.33 mg/rat/day, control 84.8 ± 4.40) was 57.6 ± 2.89 Mg/100 mL and the “Cholesterol Levels, HDL” value ([2]; Day 7, 1.0 mg/rat/day, control 49.6 ± 4.01) was 25.0 ± 1.87 Mg/100 mL. For the same molecule, the “Cholesterol Levels, Total” value ([2]; Day 7, 1.0 mg/rat/day, control 84.8 ± 4.40) was 58.0 ± 4.06 Mg/100 mL, the “Cholesterol Levels, HDL” value ([2]; Day 7, 3.0 mg/rat/day, control 49.6 ± 4.01) was 15.4 ± 1.40 Mg/100 mL and the “Cholesterol Levels, Total” value ([2]; Day 7, 3.0 mg/rat/day, control 84.8 ± 4.40) was 46.4 ± 2.23 Mg/100 mL.
